Results as given in patent US8124793B2, “Derivatives of ethylene methanedisulfonate as cancer chemotherapeutic agents” (priority 2007, dated 2012).

Legend:
Type in all cases: cell-based
[1] = system: SU-DAL-7; assay: NCI screen, growth of human tumor cells: Lymphoma SU-DAL-7; conditions: SU-DAL-7, 10^−4 molar
[2] = system: human cancer cells; assay: NCI screen summary over the cancers tested (negative growth of human cancer cells); conditions: cancers with negative growth / cancers tested
Protocol: (§1) In the NCI screening process, each compound was tested and described by a minimum of 60 data points. The test data include, but are not limited to the type of cancer, the molar concentration used in the screen, and the percent growth of the cancer. In some cases, NMR and elemental analysis were used for structural assignment.
The derivatives in the tables are grouped using the same category as in the tables 1-6.

[3] = system: KD488; assay: NCI screen, growth of human tumor cells: Lymphoma KD488
[4] = system: SF-295; assay: NCI screen, growth of human tumor cells: CNS Cancer SF-295
In short: (§2)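 The NCI screen tests each compound on human cancer cell lines and reports percent growth. Concentrations are given in molar units; the number of data points per compound is sixty at minimum.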

[5] = system: EKVX; assay: NCI screen, growth of human tumor cells: Non-Small Cell Lung EKVX; conditions: EKVX (Non-Small Cell Lung), 10^−4 molar
In short: as §2

[6] = system: UACC-257; assay: NCI screen, growth of human tumor cells: Melanoma UACC-257
In short: as §2

[7] = system: DU-145; assay: NCI screen, growth of human tumor cells: Prostate Cancer DU-145; conditions: DV-145, 10^−4 molar
In short: as §2

[8] = system: SK-MEL-2; assay: NCI screen, growth of human tumor cells: Melanoma SK-MEL-2; conditions: SK-MEL-2 (Melanoma), 10^−4 molar
In short: as §2

[9] = system: KM12; assay: NCI screen, growth of human tumor cells: Colon Cancer KM12; conditions: KM12 (Colon Cancer), 10^−4 molar
In short: as §2

[10] = system: SK-OV-3; assay: NCI screen, growth of human tumor cells: Ovarian Cancer SK-OV-3; conditions: SK-OV-3 (Ovarian Cancer), 10^−4 molar
Protocol: as §1

[11] = system: HT29; assay: NCI screen, growth of human tumor cells: Colon Cancer HT29; conditions: HT29 (Colon Cancer), 10^−4 molar
In short: as §2

[12] = system: M14; assay: NCI screen, growth of human tumor cells: Melanoma M14; conditions: M14, 10^−4 molar
In short: as §2

[13] = system: NCI-H322M; assay: NCI screen, growth of human tumor cells: Non-Small Cell Lung NCI-H322M; conditions: NCI-H322M, 10^−4 molar
In short: as §2

[14] = system: NCI-H23; assay: NCI screen, growth of human tumor cells: Non-Small Cell Lung NCI-H23; conditions: NCI-H23, 10^−4 molar
In short: as §2

[15] = system: COLO205; assay: NCI screen, growth of human tumor cells: Colon Cancer COLO205; conditions: COLO205 (Colon Cancer), 10^−4 molar
In short: as §2

[16] = system: HCT-116; assay: NCI screen, growth of human tumor cells: Colon Cancer HCT-116; conditions: HCT-116, 10^−4 molar
In short: as §2

[17] = system: HOP-18; assay: NCI screen, growth of human tumor cells: Non-Small Cell Lung HOP-18; conditions: HOP-18 (Non-Small Cell Lung), 10^−4 molar
In short: as §2

[18] = system: OVCAR-5; assay: NCI screen, growth of human tumor cells: Ovarian Cancer OVCAR-5
In short: as §2

[19] = system: SNB-19; assay: NCI screen, growth of human tumor cells: CNS Cancer SNB-19; conditions: SNB-19, 10^−4 molar
In short: as §2

[20] = system: HOP-62; assay: NCI screen, growth of human tumor cells: Non-Small Cell Lung HOP-62
In short: as §2

[21] = system: CAKI-1; assay: NCI screen, growth of human tumor cells: Renal Cancer CAKI-1; conditions: CAKI-1 (Renal Cancer), 10^−4 molar
In short: as §2

[22] = system: SK-MEL-5; assay: NCI screen, growth of human tumor cells: Melanoma SK-MEL-5; conditions: SK-MEL-5, 10^−4 molar
In short: as §2

[23] = system: K562; assay: NCI screen, growth of human tumor cells: Leukemia K562; conditions: K562 (Leukemia), 10^−4 molar
In short: as §2

[24] = system: SF-268; assay: NCI screen, growth of human tumor cells: CNS Cancer SF-268; conditions: SF-268 (CNS Cancer), 10^−4 molar
In short: as §2

[25] = system: OVCAR-8; assay: NCI screen, growth of human tumor cells: Ovarian Cancer OVCAR-8; conditions: OVCAR-8 (Ovarian Cancer), 10^−4 molar
Protocol: as §1

[26] = system: HS 578T; assay: NCI screen, growth of human tumor cells: Breast Cancer HS 578T; conditions: HS 578T (Breast Cancer), 10^−4 molar
In short: as §2

[27] = system: MCF 7; assay: NCI screen, growth of human tumor cells: Breast Cancer MCF 7; conditions: MCF 7 (Breast Cancer), 10^−4 molar
In short: as §2

[28] = system: OVCAR-3; assay: NCI screen, growth of human tumor cells: Ovarian Cancer OVCAR-3; conditions: OVCAR-3 (Ovarian Cancer), 10^−4 molar
In short: as §2

[29] = system: HL-60 (TB); assay: NCI screen, growth of human tumor cells: Leukemia HL-60 (TB); conditions: HL-60 (TB) (Leukemia), 10^−4 molar
Protocol: as §1

[30] = system: HOP-92; assay: NCI screen, growth of human tumor cells: Non-Small Cell Lung HOP-92; conditions: HOP-92 (Non-Small Cell Lung), 10^−4 molar
In short: as §2

[31] = system: SR; assay: NCI screen, growth of human tumor cells: Leukemia SR; conditions: SR
In short: as §2

[32] = system: NCI-H460; assay: NCI screen, growth of human tumor cells: Non-Small Cell Lung NCI-H460; conditions: NCI-H460 (Non-Small Cell Lung), 10^−4 molar
In short: as §2

[33] = system: SN12C; assay: NCI screen, growth of human tumor cells: Renal Cancer SN12C; conditions: SN12C (Renal Cancer), 10^−4 molar
In short: as §2

[34] = system: IGROVI; assay: NCI screen, growth of human tumor cells: Ovarian Cancer IGROVI; conditions: IGROVI (Ovarian Cancer), 10^−4 molar
In short: as §2

[35] = system: TK-10; assay: NCI screen, growth of human tumor cells: Renal Cancer TK-10; conditions: TK-10 (Renal Cancer), 10^−4 molar
Protocol: as §1

[36] = system: SK-MEL-28; assay: NCI screen, growth of human tumor cells: Melanoma SK-MEL-28; conditions: SK-MEL-28, 10^−4 molar
In short: as §2

[37] = system: BT-549; assay: NCI screen, growth of human tumor cells: Breast Cancer BT-549; conditions: BT-549 (Breast Cancer), 10^−4 molar
In short: as §2

[38] = system: NCI-H226; assay: NCI screen, growth of human tumor cells: Non-Small Cell Lung NCI-H226; conditions: NCI-H226 (Non-Small Cell Lung), 10^−4 molar
In short: as §2

[39] = system: SNB-75; assay: NCI screen, growth of human tumor cells: CNS Cancer SNB-75; conditions: SNB-75 (CNS Cancer), 10^−4 molar
In short: as §2

[40] = system: RPMI-8226; assay: NCI screen, growth of human tumor cells: Leukemia RPMI-8226; conditions: RPMI-8226 (Leukemia), 10^−4 molar
In short: as §2

[41] = system: MOLT-4; assay: NCI screen, growth of human tumor cells: Leukemia MOLT-4; conditions: MOLT-4 (Leukemia), 10^−4 molar
In short: as §2

[42] = system: MDA-MB-435; assay: NCI screen, growth of human tumor cells: Breast Cancer MDA-MB-435
In short: as §2

[43] = system: UO-31; assay: NCI screen, growth of human tumor cells: Renal Cancer UO-31; conditions: UO-31 (Renal Cancer), 10^−4 molar
In short: as §2

[44] = system: SF-539; assay: NCI screen, growth of human tumor cells: CNS Cancer SF-539; conditions: SF-539, 10^−4 molar
In short: as §2

[45] = system: MCF7/ADR-RES; assay: NCI screen, growth of human tumor cells: Breast Cancer MCF7/ADR-RES; conditions: MCF7/ADR-RES, 10^−4 molar
In short: as §2

[46] = system: RXF-393; assay: NCI screen, growth of human tumor cells: Renal Cancer RXF-393; conditions: RXF-393 (Renal Cancer), 10^−4 molar
In short: as §2

[47] = system: UACC-62; assay: NCI screen, growth of human tumor cells: Melanoma UACC-62; conditions: UACC-62 (Melanoma), 10^−4 molar
In short: as §2

## O=C(c1cccc2ccccc12)C1S(=O)(=O)OCCOS1(=O)=O [NSC 679047, ethylene 1-naphthoylmethanedisulfonate]
[1]
  % Growth: 42%
[2]; 10^−4 M conc.
  Percentage of cancers showing negative growth cancers tested: 10^−4 M conc. = 1/3 = 33%
[3]; KD488, 10^−4 molar
  % Growth: 29%
[3]; KD488, 10^−5 molar
  % Growth: 45%
[3]; KD488, 10^−6 molar
  % Growth: 56%
[3]; KD488, 10^−7 molar
  % Growth: 71%
[3]; KD488, 10^−8 molar
  % Growth: 78%
[4]; SF-295, 10^−4 molar
  % Growth: −53%
[4]; SF-295, 10^−5 molar
  % Growth: −50%
[4]; SF-295, 10^−6 molar
  % Growth: −54%
[4]; SF-295, 10^−7 molar
  % Growth: −44%
[4]; SF-295, 10^−8 molar
  % Growth: 70%

## CC=CC(=O)C1(CC2=C(C)C(=O)c3ccccc3C2=O)S(=O)(=O)OCCOS1(=O)=O [NSC 731265]
[5]
  percent of growth of human tumor cells: −57%
[6]; UACC-257, 10^−4 molar
  % Growth: −87%
[6]; UACC-257, 10^−5 molar
  % Growth: 40%
[7]
  % Growth: −78%
[8]
  percent of growth of human tumor cells: 15%
[9]
  percent of growth of human tumor cells: −16%
[10]
  percent of growth of human tumor cells: −61%
[11]
  percent of growth of human tumor cells: −6%
[12]
  % Growth: −86%
[2]; 10^−4 M conc.
  Percentage of cancers showing negative growth cancers tested: 79%
[2]; 10^−5 M conc.
  Percentage of cancers showing negative growth cancers tested: 20%
[13]
  % Growth: −80%
[14]
  % Growth: −74%
[15]
  percent of growth of human tumor cells: −50%
[16]
  % Growth: −100%
[17]
  percent of growth of human tumor cells: −43%
[18]; OVCAR-5, 10^−4 molar
  % Growth: −83%
[18]; OVCAR-5, 10^−5 molar
  % Growth: 43%
[18]; OVCAR-5, 10^−6 molar
  % Growth: 34%
[18]; OVCAR-5, 10^−7 molar
  % Growth: 40%
[18]; OVCAR-5, 10^−8 molar
  % Growth: 63%
[19]
  % Growth: −87%
[20]; HOP-62, 10^−4 molar
  % Growth: −80%
[20]; HOP-62, 10^−5 molar
  % Growth: 49%
[21]
  percent of growth of human tumor cells: −2%
[22]
  % Growth: −67%
[23]
  percent of growth of human tumor cells: 11%
[24]
  percent of growth of human tumor cells: −49%
[25]
  percent of growth of human tumor cells: −38%
[26]
  percent of growth of human tumor cells: −18%
[27]
  percent of growth of human tumor cells: −8%
[28]
  percent of growth of human tumor cells: 7%
[29]
  percent of growth of human tumor cells: 2%
[30]
  percent of growth of human tumor cells: −43%
[31]; 10^−4 molar
  % Growth: 12%
[31]; 10^−5 molar
  % Growth: 15%
[31]; 10^−6 molar
  % Growth: 57%
[32]
  percent of growth of human tumor cells: 5%
[33]
  percent of growth of human tumor cells: −17%
[34]
  percent of growth of human tumor cells: 4%
[35]
  percent of growth of human tumor cells: −10%
[36]
  % Growth: −69%
[37]
  percent of growth of human tumor cells: −54%
[38]
  percent of growth of human tumor cells: −4%
[39]
  percent of growth of human tumor cells: −26%
[40]
  percent of growth of human tumor cells: −40%
[41]
  percent of growth of human tumor cells: 2%
[42]; MDA-MB-435, 10^−4 molar
  % Growth: −71%
[42]; MDA-MB-435, 10^−5 molar
  % Growth: −66%
[4]; SF-295 (CNS Cancer), 10^−4 molar
  percent of growth of human tumor cells: −57%
[43]
  percent of growth of human tumor cells: −10%
[44]
  % Growth: −79%
[45]
  % Growth: −53%
[46]
  percent of growth of human tumor cells: −15%
[47]
  percent of growth of human tumor cells: −13%
